Data as given in PubChem BioAssay (NCI).
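In this assay, cells in 96-well plates receive the compound at five concentrations for 48 hours. Endpoints are linearly interpolated between the surrounding concentrations. At the GI50, growth is halved. Definition used: TGI = concentration required for complete inhibition of growth.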

What was measured:
Test in all cases: NCI tumour cell line growth inhibition, 48 h
[1] = tested on: K-562 leukemia
[2] = tested on: RXF 393 renal
[3] = tested on: SN12C renal
[4] = tested on: CAKI-1 renal
[5] = tested on: SW-620 colon
[6] = tested on: HT29 colon
[7] = tested on: NCI-H23 lung
[8] = tested on: SK-MEL-5 melanoma
[9] = tested on: SF-268 CNS
[10] = tested on: HOP-62 NSCLC

| SMILES | GI50 [1] | TGI [1] | GI50 [2] | TGI [2] | GI50 [3] | TGI [3] | GI50 [4] | TGI [4] | GI50 [5] | TGI [5] | GI50 [6] | TGI [6] | GI50 [7] | TGI [7] | GI50 [8] | TGI [8] | GI50 [9] | TGI [9] | TGI [10] | GI50 [10] |
| --- | --- | --- | --- | --- | --- | --- | --- | --- | --- | --- | --- | --- | --- | --- | --- | --- | --- | --- | --- | --- |
| COc1cc(C2SCC(=O)N2c2ncc(C)s2)cc(OC)c1OC (stereo not given) | 23.5 µM | > 50 µM | 27.5 µM | > 50 µM | 13.3 µM | > 50 µM | 12 µM | > 50 µM | 21.4 µM | > 50 µM | 23.3 µM | > 50 µM | 30600 nM | > 50 µM | 17.3 µM | > 50 µM | > 50 µM | > 50 µM | – | – |
| O=c1ncc(F)cn1C1OC(CO)C(O)C1O (stereo not given) | – | > 100 µM | – | > 100 µM | – | > 60.4 µM | – | > 100 µM | – | > 100 µM | – | > 73.3 µM | – | > 100 µM | – | – | – | > 77.4 µM | > 100 µM | – |
| CCN(CC)CC(O)CNc1c2ccc([N+](=O)[O-])cc2nc2cc(OC)c(OC)cc12 (stereo not given) | 0.396 µM | 10.9 µM | 0.469 µM | 1.86 µM | 0.335 µM | 2.79 µM | 4.5 µM | 16.6 µM | 0.289 µM | 2.37 µM | 0.258 µM | 1.2 µM | 220 nM | 0.705 µM | 0.273 µM | 0.769 µM | 0.293 µM | 1.34 µM | – | – |
| Cc1ccc(S(=O)(=O)NC2(C=O)CCCC3CCCCC32)cc1 (stereo not given) | – | > 100 µM | – | > 100 µM | – | > 100 µM | – | > 100 µM | – | > 100 µM | – | – | – | – | – | > 100 µM | – | > 100 µM | > 100 µM | – |
| O=C(c1ccccc1)C1OC1c1ccc([N+](=O)[O-])cc1 (stereo not given) | – | – | 6.38 µM | 44.8 µM | 10.1 µM | > 100 µM | 2.31 µM | 6.56 µM | 2.42 µM | 6.6 µM | 3.75 µM | 14.5 µM | 2840 nM | 14.1 µM | 3.81 µM | 16.7 µM | 8.73 µM | > 100 µM | 65.9 µM | 4.76 µM |
| COCc1cc(C(=O)Nc2cc([C@H]3CC[C@@H](OC(=O)NC(C)C)C3)[nH]n2)n(C)n1 | 12.1 µM | > 100 µM | 2.93 µM | 9.11 µM | 9.58 µM | > 100 µM | 3.64 µM | 95.3 µM | 4.32 µM | 74.7 µM | 10.3 µM | 89 µM | – | – | 15.6 µM | 39.3 µM | 12.1 µM | 50.5 µM | 88.4 µM | 8.6 µM |
| CC(Nc1ccc(S(=O)(=O)N=C(N)N)cc1)c1c2ccccc2nc2ccccc12 (stereo not given) | – | 99.4 µM | – | 85.3 µM | – | > 100 µM | – | 81 µM | – | > 100 µM | – | > 100 µM | – | 88.9 µM | – | – | – | > 100 µM | – | – |
| CC(=O)OC(C)(C)/C(C)=C/C(=O)O[C@H]1C(=O)O[C@@H]2C[C@H]3[C@H](C)C(=O)C(O[C@@H]4O[C@H](CO)[C@@H](O)[C@H](O)[C@H]4O)=C[C@]3(C)[C@H]3[C@@H](O)[C@H](O)[C@@]4(C(=O)O)OC[C@]32[C@@H]14 | 39.5 µM | > 100 µM | 37.3 µM | > 100 µM | > 100 µM | > 100 µM | > 100 µM | > 100 µM | > 100 µM | > 100 µM | > 100 µM | > 100 µM | > 100000 nM | > 100 µM | – | – | > 100 µM | > 100 µM | > 100 µM | 69.1 µM |
